# From US20050143463A1, “Method of inhibiting angiogenesis” (THE QUEEN ELIZABETH HOSPITAL RESEARCH FOUNDATION INC., priority 2002, published 2005)
# Experiments:
# [1] = tested on: Human umbilical vein endothelial cells (HUVEC); assay: HUVEC proliferation assay (tritiated thymidine uptake); format: cell-based; conditions: for HUVEC proliferation (in words) / inhibition at 400 µM: 400 μM concentration; for HUVEC proliferation (in words): tritiated thymidine uptake; for inhibition at 400 µM: percentage of control cells with no added agent (Table 3), read-out: Percentage inhibition of HUVEC proliferation; for inhibition of HUVEC proliferation in vitro, dose dependent (in words): dose dependent manner
# Protocol: Human umbilical vein endothelial cells (HUVEC) were seeded in 96-well flat bottomed tissue culture plates at a density of 2.5-5×10^4 cells/well and treated with various dilutions of agents. Cells were cultured in RPMI medium containing 20% FCS, Penicillin/Streptomycin in a 5% CO2 atmosphere at 37° C. After 24 to 48 hours of incubation, cells were pulsed with 1 μCi of tritiated thymidine for 6 hours. The pulsed cells were trypsinised to detach from the wells and then harvested in a TOMTEC Cell Harvester onto glass fibre filters, which were dried and immersed in scintillation fluid and counted in a Wallac Microbeta scintillation counter. The results were reported as mean cpm±SD.
# [2] = tested on: chicken chorioallantoic membrane (CAM); assay: Chicken chorioallantoic membrane (CAM) assay for angiogenesis; format: in vivo; conditions: for inhibition of angiogenesis in the CAM assay, dose dependent (in words): dose dependent manner; for Vein length (%) / Artery length (%) / CAM Increase (%) / Total vessel length (%) / Vein Diameter (%): % of control, Mean ± SEM; for cytotoxicity to the embryo: chicken embryo, CAM assay; for effect of the lowest dose on vein length, artery length, total vessel length and vein diameter (in words): lowest dose (25 nmol)
# Protocol: Fertilised chicken eggs (HiChick Breeding Co, Kapunda, South Australia) were incubated for three days at 38° C. On Day 3 the embryos were cracked out of the egg and into a cup made of plastic piping, with plastic film stretched over the top to form a hammock for the egg to be suspended in. Two ml of DMEM containing penicillin and streptomycin was added to each cup prior to the egg being added. A petri dish on the top maintained sterility. Incubation continued in a humidified 37° C. incubator.
# On Day 4 the chorioallantoic membrane (CAM) begins to grow, and pictures were taken of each embryo at ×5 to measure the CAM area using image analysis software (Video Pro 32, Leading Edge Pty Ltd, South Australia).
# Embryos were then grouped according to their CAM area, with a control embryo in each for comparison. Grouping is critical as in these early developmental stages changes in the CAM growth are dramatic. Relatively small differences in size on Day 4 translate to large differences in the CAM on Day 5. Treatment was applied in methylcellulose discs, which were dried under vacuum overnight. The methylcellulose discs were applied to the top of the CAM, and at the beginning of treatment were at least three to four-fold bigger than the CAM area, meaning treatment covered the entire CAM surface.
# On Day 5 skim milk with contrast medium was injected into the CAM. Pictures were then taken at various levels of magnification up to ×63. Quantitative measurements were made from ×5 pictures. CAM area, and vein and artery lengths were measured using image analysis (Video Pro 32, Leading Edge Pty Ltd, South Australia). Relative vessel lengths were then calculated as the total length/CAM area. Statistical analysis was made using SigmaStat and OneWay ANOVA with p<0.05 as the level of significance.
# [3] = 25 nmol on methylcellulose disc
# [4] = 50 nmol on methylcellulose disc
# [5] = 100 nmol on methylcellulose disc
molecule,measurement,setting,value
"CO[C@H]1C[C@@H]2CC[C@@H](C)[C@@](O)(O2)C(=O)C(=O)N2CCCC[C@H]2C(=O)O[C@H]([C@H](C)C[C@@H]2CC[C@@H](O)[C@H](OC)C2)CC(=O)[C@H](C)/C=C(\C)[C@@H](O)[C@@H](OC)C(=O)[C@H](C)C[C@H](C)/C=C/C=C/C=C/1C [rapamycin, reference compound]",% Inhibition of HUVEC proliferation,"[1]; 0.1 nM rapamycin, 24 hours (Table 2)",72.8%
same,inhibition at 0.0001 µM,"[1]; Homo sapiens, HUVEC, 24 h, 0.1 nM rapamycin, 24 hours (Table 2)",73%
same,inhibition at 0.001 µM,"[1]; Homo sapiens, HUVEC, 24 h, 1 nM rapamycin, 24 hours (Table 2)",~80%
CC(C)CCCCCCCCCCCCCCC(=O)O [16-methyl heptadecanoic acid],HUVEC proliferation (in words),[1],inhibited
same,inhibition at 400 µM,"[1]; Homo sapiens, HUVEC",19%
same,"inhibition of HUVEC proliferation in vitro, dose dependent (in words)",[1],inhibit the proliferation
CCC(C)CCCCCCCCCCCCC(=O)O (stereo not shown) [14-methyl hexadecanoic acid],HUVEC proliferation (in words),[1],inhibited
same,inhibition at 400 µM,"[1]; Homo sapiens, HUVEC",41%
same,"inhibition of HUVEC proliferation in vitro, dose dependent (in words)",[1],inhibit the proliferation
16-methyltetradecanoic acid,"inhibition of angiogenesis in the CAM assay, dose dependent (in words)",[2],inhibit angiogenesis
"CCCCCCCCC(C)CCCCCCCCC(=O)O (stereo not shown) [10-MODA, 10-methyloctadecanoic Acid]",Vein length (%),[2]; [3],88.4 ± 8.8%
same,Artery length (%),[2]; 25 nmol,85.7 ± 6.2%
same,CAM Increase (%),[2]; 25 nmol,101.9 ± 11.2%
same,Total vessel length (%),[2]; 25 nmol,85.7 ± 5.4%
same,Vein Diameter (%),[2]; 25 nmol,82.9 ± 3.0%
same,Vein length (%),[2]; [4],85.8 ± 14.1%
same,Artery length (%),[2]; 50 nmol,94.3 ± 6.3%
same,CAM Increase (%),[2]; 50 nmol,120.2 ± 25.5%
same,Total vessel length (%),[2]; 50 nmol,88.9 ± 7.0%
same,Vein Diameter (%),[2]; 50 nmol,90.2 ± 9.8%
same,number of branching capillaries sprouting from the main vessels,[2]; 100 nmol,reduction
same,vessel area,[2]; 100 nmol,diminished
same,Vein length (%),[2]; [5],70.9 ± 22.5%
same,CAM Increase (%),[2]; 100 nmol,68.2 ± 8.6%
same,Vein Diameter (%),[2]; 100 nmol,76.1 ± 16.2%
same,cytotoxicity to the embryo,[2],not cytotoxic
same,"inhibition of angiogenesis in the CAM assay, dose dependent (in words)",[2],inhibit angiogenesis
same,"effect of the lowest dose on vein length, artery length, total vessel length and vein diameter (in words)",[2],inhibited
CCC(C)CCCCCCCCCC(=O)O (stereo not shown) [11-methyl tridecanoic acid],HUVEC proliferation (in words),[1],inhibited
same,inhibition at 400 µM,"[1]; Homo sapiens, HUVEC",42%
same,"inhibition of HUVEC proliferation in vitro, dose dependent (in words)",[1],inhibit the proliferation
CCC(C)CCCCCCCCCCCCCC(=O)O (stereo not shown) [15-methyl heptadecanoic acid],HUVEC proliferation (in words),[1],inhibited
same,inhibition at 400 µM,"[1]; Homo sapiens, HUVEC",49%
same,"inhibition of HUVEC proliferation in vitro, dose dependent (in words)",[1],inhibit the proliferation
"CC(C)CCCCCCCCCCCC(=O)O [13-MTA, 13-methyltetradecanoic Acid]",number of branching capillaries sprouting from the main vessels,[2]; 100 nmol,reduction
same,vessel area,[2]; 100 nmol,diminished
same,cytotoxicity to the embryo,[2],not cytotoxic
same,"inhibition of angiogenesis in the CAM assay, dose dependent (in words)",[2],inhibit angiogenesis
same,"effect of the lowest dose on vein length, artery length, total vessel length and vein diameter (in words)",[2],inhibited
same,HUVEC proliferation (in words),[1],inhibited
same,inhibition at 400 µM,"[1]; Homo sapiens, HUVEC",19%
same,"inhibition of HUVEC proliferation in vitro, dose dependent (in words)",[1],inhibit the proliferation
CC(C)CCCCCCCCCCC(=O)O [12-methyl tridecanoic acid],HUVEC proliferation (in words),[1],inhibited
same,inhibition at 400 µM,"[1]; Homo sapiens, HUVEC",35%
same,"inhibition of HUVEC proliferation in vitro, dose dependent (in words)",[1],inhibit the proliferation
CC(C)CCCCCCCCCC(=O)O [11-methyl dodecanoic acid],HUVEC proliferation (in words),[1],inhibited
same,inhibition at 400 µM,"[1]; Homo sapiens, HUVEC",83%
same,"inhibition of HUVEC proliferation in vitro, dose dependent (in words)",[1],inhibit the proliferation
CCC(C)CCCCCCCCCCCC(=O)O (stereo not shown) [13-methyl pentadecanoic acid],HUVEC proliferation (in words),[1],inhibited
same,inhibition at 400 µM,"[1]; Homo sapiens, HUVEC",21%
same,"inhibition of HUVEC proliferation in vitro, dose dependent (in words)",[1],inhibit the proliferation
"CC(C)CCCCCCCCCCCCCCCC(=O)O [17-MODA, 17-methyloctadecanoic Acid]",Vein length (%),[2]; [3],81.3 ± 16.8%
same,Artery length (%),[2]; 25 nmol,82.6 ± 18.0%
same,Total vessel length (%),[2]; 25 nmol,81.9 ± 16.9%
same,Vein Diameter (%),[2]; 25 nmol,71.6 ± 13.4%
same,Vein length (%),[2]; [4],112.8 ± 9.4%
same,Artery length (%),[2]; 50 nmol,97.0 ± 11.7%
same,Total vessel length (%),[2]; 50 nmol,104.2 ± 10.4%
same,Vein Diameter (%),[2]; 50 nmol,81.3 ± 8.4%
same,number of branching capillaries sprouting from the main vessels,[2]; 100 nmol,reduction
same,vessel area,[2]; 100 nmol,diminished
same,Vein length (%),[2]; [5],94.3 ± 18.9%
same,Artery length (%),[2]; 100 nmol,97.2 ± 17.4%
same,Total vessel length (%),[2]; 100 nmol,95.9 ± 18.1%
same,Vein Diameter (%),[2]; 100 nmol,70.0 ± 15.0%
same,cytotoxicity to the embryo,[2],not cytotoxic
same,"inhibition of angiogenesis in the CAM assay, dose dependent (in words)",[2],inhibit angiogenesis
same,"effect of the lowest dose on vein length, artery length, total vessel length and vein diameter (in words)",[2],inhibited
CC(C)CCCCCCCCC(=O)O [10-methyl undecanoic acid],HUVEC proliferation (in words),[1],inhibited
same,inhibition at 400 µM,"[1]; Homo sapiens, HUVEC",84%
same,"inhibition of HUVEC proliferation in vitro, dose dependent (in words)",[1],inhibit the proliferation
CC(C)CCCCCCCCCCCCCC(=O)O [15-methyl hexadecanoic acid],HUVEC proliferation (in words),[1],inhibited
same,inhibition at 400 µM,"[1]; Homo sapiens, HUVEC",63%
same,"inhibition of HUVEC proliferation in vitro, dose dependent (in words)",[1],inhibit the proliferation
"CC(C)CCCCCCCCCCCCC(=O)O [14-MPDA, 14-methylpentadecanoic Acid]",Vein length (%),[2]; [3],89.6 ± 10.1%
same,Artery length (%),[2]; 25 nmol,81.3 ± 11.4%
same,Total vessel length (%),[2]; 25 nmol,84.7 ± 8.7%
same,Vein Diameter (%),[2]; 25 nmol,90.8 ± 9.2%
same,Vein length (%),[2]; [4],80.9 ± 14.3%
same,Artery length (%),[2]; 50 nmol,81.4 ± 11.7%
same,Total vessel length (%),[2]; 50 nmol,80.9 ± 12.3%
same,Vein Diameter (%),[2]; 50 nmol,81.8 ± 14.1%
same,number of branching capillaries sprouting from the main vessels,[2]; 100 nmol,reduction
same,vessel area,[2]; 100 nmol,diminished
same,Vein length (%),[2]; [5],63.3 ± 5.1^1%
same,Artery length (%),[2]; 100 nmol,83.5 ± 9.3%
same,Total vessel length (%),[2]; 100 nmol,74.0 ± 6.6%
same,Vein Diameter (%),[2]; 100 nmol,76.3 ± 10.2%
same,cytotoxicity to the embryo,[2],not cytotoxic
same,"inhibition of angiogenesis in the CAM assay, dose dependent (in words)",[2],inhibit angiogenesis
same,"effect of the lowest dose on vein length, artery length, total vessel length and vein diameter (in words)",[2],inhibited
same,HUVEC proliferation (in words),[1],inhibited
same,inhibition at 400 µM,"[1]; Homo sapiens, HUVEC",7%
same,"inhibition of HUVEC proliferation in vitro, dose dependent (in words)",[1],inhibit the proliferation
